Experiments:
[1] = system: λ-carrageenan acute inflammation; test: acute toe swelling in carrageenan-induced transgenic TNF-luc mice; format: in vivo, BALB/c transgenic TNF-luc mice; settings: Adalimumab 8 mg/kg, mPEG-SC20k-HM-3 20 mg/kg sc
Procedure: Before modeling, 8 animals are randomly divided into 4 groups (n=2), a normal group, a model group, a positive drug group and a test treatment group. One hour before modeling, the normal group and the model group are hypodermically injected with normal saline (0.2 mL/20 g of body weight) respectively; the positive drug group is hypodermically injected with Adalimumab (8 mg/kg of body weight), 15 d/time, once; and the test treatment group is hypodermically injected with mPEG-SC20k-HM-3 (20 mg/kg of body weight), 2 d/time, twice. The initial ankle width, foot palm width and toe thickness of the left foot are measured as initial values.
Modeling starts at hour 0, 50 μL of 1% carrageenan is hypodermically injected into the bottom of left toe of transgenic TNF-luc mice, and the ankle swelling degree, foot palm swelling degree and toe swelling degree of each group of mice are measured with a vernier caliper at […], hour 1, hour 3, hour 5, hour 7, hour 9, hour 12, hour 24, hour 48, hour 72 and hour 96 respectively. Method for calculating toe swelling degree:
Swelling degree of left ankle (cm)=swelling thickness of left ankle during measurement−thickness of left ankle during initial measurement.
Swelling degree of left foot palm (cm)=swelling thickness of left foot palm during measurement−thickness of left foot palm during initial measurement.
Swelling degree of left toe (cm)=swelling thickness of left toe during measurement−thickness of left toe during initial measurement.

[2] = system: AIA transgenic TNF-luc mice; test: adjuvant-induced arthritis in transgenic TNF-luc mice (swelling, scores, weight, HE staining); format: in vivo, BALB/c transgenic TNF-luc mice; parameters: right ankle swelling / left ankle swelling / left toe swelling / right toe swelling / changes of weight (added value): unit not given here; settings: Adalimumab 8 mg/kg
Procedure: 8 animals are randomly divided into 4 groups (n=2), a normal group, a model group, a positive drug group and a test group. On day 0, the initial left and right ankle thicknesses, initial left and right foot palm thicknesses and initial left and right toe thicknesses of each group of mice are measured. On day 0, 50 μL/mouse complete Freund's adjuvant is injected into the bottom of the left toe of each group of mice, and the treatment is started after secondary inflammation appears in the right foot of each group of mice on day 17. On day 17, the normal group and the model group are hypodermically injected with 0.9% normal saline (0.2 mL/20 g of body weight), once every 2 days, 7 times in total. The positive drug Adalimumab group is hypodermically injected with Adalimumab (8 mg/kg of body weight), once every 15 days, once in total. The test group is hypodermically injected with mPEG-SC20k-HM-3 (20 mg/kg of body weight), once every 2 days, 7 times in total. The treatment lasts for 15 days. Then, medication is stopped for observation for one week, and the mice are killed one week later.
On day 0, the initial ankle widths, foot palm widths and toe thicknesses of left and right feet are measured with a vernier caliper as initial values. Every 2 days, the left and right ankle widths, foot palm widths and toe thicknesses of each group of mice are measured separately with the vernier caliper, and compared with the initial values to calculate the changes in the swelling degree.
The joints of the mouse paw are observed with naked eyes, and the joints are scored every 2 days from day 17. Scoring is performed in terms of level 0 to level 4, 5 levels in total.
After the secondary inflammation appears, systemic scoring is performed every 2 days.
Changes of expression of TNF-α and IL-6 are analyzed by HE staining and immunohistochemistry in the ankle joint, spleen and thymus of the mice. Observation and photographing are performed under the FOVs of ×200 and ×400 times respectively, 5 FOVs are taken randomly for each picture, and data statistics is performed.

[3] = 0 d, before treatment (starts day 17), mPEG-SC20k-HM-3 20 mg/kg groups
[4] = 1 d, before treatment (starts day 17), mPEG-SC20k-HM-3 20 mg/kg groups
[5] = 3 d, before treatment (starts day 17), mPEG-SC20k-HM-3 20 mg/kg groups
[6] = 6 d, before treatment (starts day 17), mPEG-SC20k-HM-3 20 mg/kg groups
[7] = 9 d, before treatment (starts day 17), mPEG-SC20k-HM-3 20 mg/kg groups
[8] = 12 d, before treatment (starts day 17), mPEG-SC20k-HM-3 20 mg/kg groups
[9] = 16 d, before treatment (starts day 17), mPEG-SC20k-HM-3 20 mg/kg groups
[10] = 17 d (treatment starts), mPEG-SC20k-HM-3 20 mg/kg sc
[11] = 19 d, mPEG-SC20k-HM-3 20 mg/kg sc
[12] = 20 d, mPEG-SC20k-HM-3 20 mg/kg sc
[13] = 22 d, mPEG-SC20k-HM-3 20 mg/kg sc
[14] = 23 d, mPEG-SC20k-HM-3 20 mg/kg sc
[15] = 25 d, mPEG-SC20k-HM-3 20 mg/kg sc
[16] = 26 d, mPEG-SC20k-HM-3 20 mg/kg sc
[17] = 28 d, mPEG-SC20k-HM-3 20 mg/kg sc
[18] = 29 d, mPEG-SC20k-HM-3 20 mg/kg sc
[19] = 31 d, mPEG-SC20k-HM-3 20 mg/kg sc
[20] = 32 d, mPEG-SC20k-HM-3 20 mg/kg sc

What does the source list for Adalimumab [reference compound]?
left ankle swelling ([1]; 1 h): 0.027 ± 0.018 cm; left foot (palm) swelling ([1]; 1 h): 0.042 ± 0.035 cm; left toe swelling ([1]; 1 h): 0.094 ± 0.054 cm; left ankle swelling ([1]; 3 h): 0.008 ± 0.048 cm; left foot (palm) swelling ([1]; 3 h): 0.071 ± 0.016 cm; left toe swelling ([1]; 3 h): 0.115 ± 0.018 cm; left ankle swelling ([1]; 5 h): 0.067 ± 0.010 cm; left foot (palm) swelling ([1]; 5 h): 0.092 ± 0.014 cm; left toe swelling ([1]; 5 h): 0.150 ± 0.028 cm; left ankle swelling ([1]; 7 h): 0.064 ± 0.006 cm; left foot (palm) swelling ([1]; 7 h): 0.094 ± 0.011 cm; left toe swelling ([1]; 7 h): 0.126 ± 0.014 cm; left ankle swelling ([1]; 9 h): 0.045 ± 0.004 cm; left foot (palm) swelling ([1]; 9 h): 0.088 ± 0.025 cm; left toe swelling ([1]; 9 h): 0.126 ± 0.021 cm; left ankle swelling ([1]; 12 h): 0.050 ± 0.003 cm; left foot (palm) swelling ([1]; 12 h): 0.090 ± 0.031 cm; left toe swelling ([1]; 12 h): 0.114 ± 0.025 cm; left ankle swelling ([1]; 24 h): 0.086 ± 0.031 cm; left foot (palm) swelling ([1]; 24 h): 0.132 ± 0.006 cm; left toe swelling ([1]; 24 h): 0.235 ± 0.134 cm; left ankle swelling ([1]; 48 h): 0.105 ± 0.075 cm; left foot (palm) swelling ([1]; 48 h): 0.152 ± 0.074 cm; left toe swelling ([1]; 48 h): 0.264 ± 0.122 cm; left ankle swelling ([1]; 72 h): 0.096 ± 0.051 cm; left foot (palm) swelling ([1]; 72 h): 0.150 ± 0.066 cm; left toe swelling ([1]; 72 h): 0.238 ± 0.113 cm; left ankle swelling ([1]; 96 h): 0.076 ± 0.034 cm; left foot (palm) swelling ([1]; 96 h): 0.133 ± 0.061 cm; left toe swelling ([1]; 96 h): 0.174 ± 0.102 cm; changes of weight (added value) [2, 3]: 0.00 ± 0.00; left ankle swelling [2, 3]: 0.000 ± 0.000; left foot (palm) swelling [2, 3]: 0.000 ± 0.000; left toe swelling [2, 3]: 0.000 ± 0.000; left ankle swelling [2, 4]: 0.239 ± 0.033; left foot (palm) swelling [2, 4]: 0.236 ± 0.062; left toe swelling [2, 4]: 0.326 ± 0.028; changes of weight (added value) [2, 5]: 0.07 ± 0.15; left ankle swelling [2, 5]: 0.262 ± 0.071; left foot (palm) swelling [2, 5]: 0.289 ± 0.016; left toe swelling [2, 5]: 0.323 ± 0.086; changes of weight (added value) [2, 6]: 0.09 ± 0.54; left ankle swelling [2, 6]: 0.226 ± 0.023; left foot (palm) swelling [2, 6]: 0.272 ± 0.057; left toe swelling [2, 6]: 0.272 ± 0.076; changes of weight (added value) [2, 7]: 0.07 ± 0.25; left ankle swelling [2, 7]: 0.260 ± 0.020; left foot (palm) swelling [2, 7]: 0.302 ± 0.003; left toe swelling [2, 7]: 0.298 ± 0.122; changes of weight (added value) [2, 8]: 0.25 ± 0.83; left ankle swelling [2, 8]: 0.264 ± 0.018; left foot (palm) swelling [2, 8]: 0.295 ± 0.021; left toe swelling [2, 8]: 0.328 ± 0.079; changes of weight (added value) ([2]; 15 d, before treatment (starts day 17), mPEG-SC20k-HM-3 20 mg/kg groups): 0.16 ± 0.66; left ankle swelling [2, 9]: 0.265 ± 0.021; left foot (palm) swelling [2, 9]: 0.271 ± 0.064; left toe swelling [2, 9]: 0.328 ± 0.065; right ankle swelling [2, 9]: 0.010 ± 0.006; right foot palm swelling [2, 9]: 0.010 ± 0.006; right toe swelling [2, 9]: 0.011 ± 0.033; joint index score [2, 10]: 7.50 ± 0.70; whole body (systemic) score [2, 10]: 7.00 ± 1.40; changes of weight (added value) [2, 11]: 0.44 ± 0.60; left ankle swelling [2, 11]: 0.254 ± 0.018; left foot (palm) swelling [2, 11]: 0.247 ± 0.078; left toe swelling [2, 11]: 0.311 ± 0.033; right ankle swelling [2, 11]: 0.010 ± 0.014; right foot palm swelling [2, 11]: 0.029 ± 0.001; right toe swelling [2, 11]: 0.012 ± 0.037; joint index score [2, 12]: 7.50 ± 0.70; whole body (systemic) score [2, 12]: 6.50 ± 2.10; changes of weight (added value) [2, 13]: 0.62 ± 0.48; left ankle swelling [2, 13]: 0.235 ± 0.013; left foot (palm) swelling [2, 13]: 0.249 ± 0.126; left toe swelling [2, 13]: 0.248 ± 0.136; right foot palm swelling [2, 13]: 0.004 ± 0.003; right toe swelling [2, 13]: 0.002 ± 0.042; joint index score [2, 14]: 8.00 ± 0.00; whole body (systemic) score [2, 14]: 4.50 ± 2.10; changes of weight (added value) [2, 15]: 0.55 ± 0.02; left ankle swelling [2, 15]: 0.218 ± 0.028; left foot (palm) swelling [2, 15]: 0.234 ± 0.040; left toe swelling [2, 15]: 0.309 ± 0.058; right foot palm swelling [2, 15]: 0.013 ± 0.016; right toe swelling [2, 15]: 0.004 ± 0.040; joint index score [2, 16]: 6.50 ± 0.70; whole body (systemic) score [2, 16]: 4.00 ± 1.40; changes of weight (added value) [2, 17]: 0.77 ± 0.33; left foot (palm) swelling [2, 17]: 0.258 ± 0.042; left toe swelling [2, 17]: 0.285 ± 0.075; right foot palm swelling [2, 17]: 0.008 ± 0.006; right toe swelling [2, 17]: 0.009 ± 0.035; joint index score [2, 18]: 6.50 ± 0.70; whole body (systemic) score [2, 18]: 4.00 ± 1.40; changes of weight (added value) [2, 19]: 1.02 ± 0.98; left foot (palm) swelling [2, 19]: 0.235 ± 0.061; left toe swelling [2, 19]: 0.290 ± 0.023; right foot palm swelling [2, 19]: 0.010 ± 0.003; right toe swelling [2, 19]: 0.003 ± 0.021; joint index score [2, 20]: 6.50 ± 0.70; whole body (systemic) score [2, 20]: 3.50 ± 0.70; HE staining of ankle joints: pathological symptoms vs model group ([2]; mPEG-SC20k-HM-3 20 mg/kg): relieved to some extent
